According to the supplement of paper PMC10627819:

Tests used:
[1] = test system: S. aureus DSM 20231; assay: fitness (endpoint OD595 vs no drug) (fraction); higher = more growth
How it was run: (§1)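 Volumes were 30 µl per well, or 55 µl for S. pneumoniae, in 384-well plates inoculated at OD595 0.01. Media were TSB, LB Lennox or CY at 37 °C, and OD595 was read every 30 min for 14 h with first-reading background subtraction. Fitness is the ratio of optical density at stationary-phase entry to the robust mean of no-drug controls. That ratio is capped at 1.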

[2] = test system: S. aureus Newman; assay: as above
How it was run: as §1

[3] = test system: S. pneumoniae D39V; assay: as above
How it was run: as §1

[4] = test system: B. subtilis 168; assay: Bliss interaction score (quartile over a dose matrix) (fitness difference); higher = more antagonism (negative = synergy)
How it was run: (§2)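 The Bliss score is observed fitness minus expected fitness, where the expected value is the product of single-drug fitness values inferred from combination data. Fitness is OD595 at entry into stationary phase normalised to the plate's robust no-drug mean and capped at 1. Scores are reported as quartiles spanning technical, biological and donor/recipient replicates.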

[5] = test system: S. aureus DSM 20231; assay: as above
How it was run: as §2

[6] = test system: S. aureus Newman; assay: as above
How it was run: as §2

[7] = test system: S. pneumoniae D39V; assay: as above
How it was run: as §2
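Wherever Bliss interaction score (quartile over a dose matrix) is given: first quartile when negative (synergy) and third quartile when positive (antagonism).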

CCC[C@@H]1C[C@@H](C(=O)N[C@@H]([C@H]2O[C@H](SC)[C@H](O)[C@@H](O)[C@H]2O)[C@H](C)Cl)N(C)C1 [Clindamycin] + CN[C@H](CC(C)C)C(=O)N[C@H]1C(=O)N[C@@H](CC(N)=O)C(=O)N[C@H]2C(=O)N[C@H]3C(=O)N[C@H](C(=O)N[C@H](C(=O)O)c4cc(O)cc(O)c4-c4cc3ccc4O)[C@H](O)c3ccc(c(Cl)c3)Oc3cc2cc(c3O[C@@H]2O[C@H](CO)[C@@H](O)[C@H](O)[C@H]2O[C@H]2C[C@](C)(N)[C@H](O)[C@H](C)O2)Oc2ccc(cc2Cl)[C@H]1O [Vancomycin]
Details | fitness
[1], first compound 0.125 µg/mL, partner 0.1875 µg/mL | 0.0642
[1], first compound 0.125 µg/mL, partner 0.375 µg/mL | 0.0657
[1], first compound 0.125 µg/mL, partner 0.75 µg/mL | 0.0731
[2], first compound 0.0312 µg/mL, partner 0.1875 µg/mL | 0.764
[2], first compound 0.0312 µg/mL, partner 0.375 µg/mL | 0.761
[2], first compound 0.0312 µg/mL, partner 0.75 µg/mL | 0.762
[3], first compound 0.0125 µg/mL, partner 0.125 µg/mL | 0.782
[3], first compound 0.0125 µg/mL, partner 0.25 µg/mL | 0.702
[3], first compound 0.0125 µg/mL, partner 0.5 µg/mL | 0.0792
[3], first compound 0.015 µg/mL, partner 0.03125 µg/mL | 0.89
[3], first compound 0.015 µg/mL, partner 0.0625 µg/mL | 0.844
[3], first compound 0.015 µg/mL, partner 0.125 µg/mL | 0.63
[3], first compound 0.025 µg/mL, partner 0.125 µg/mL | 0.544
[3], first compound 0.025 µg/mL, partner 0.25 µg/mL | 0.47
[3], first compound 0.025 µg/mL, partner 0.5 µg/mL | 0.0715
[3], first compound 0.03 µg/mL, partner 0.03125 µg/mL | 0.738
[3], first compound 0.03 µg/mL, partner 0.0625 µg/mL | 0.7
[3], first compound 0.03 µg/mL, partner 0.125 µg/mL | 0.526
[3], first compound 0.05 µg/mL, partner 0.125 µg/mL | 0.296
[3], first compound 0.05 µg/mL, partner 0.25 µg/mL | 0.237
[3], first compound 0.05 µg/mL, partner 0.5 µg/mL | 0.0635
[3], first compound 0.06 µg/mL, partner 0.03125 µg/mL | 0.501
[3], first compound 0.06 µg/mL, partner 0.0625 µg/mL | 0.47
[3], first compound 0.06 µg/mL, partner 0.125 µg/mL | 0.327

Details | Bliss interaction score
[4] | 0.0503
[5] | 0.0292
[6] | 0.135
[7] | 0.111

O=C(N[C@H](CO)[C@H](O)c1ccc([N+](=O)[O-])cc1)C(Cl)Cl [Chloramphenicol] + Cc1cc(NS(=O)(=O)c2ccc(N)cc2)no1 [Sulfamethoxazol]
fitness
Details | first compound 0.75 µg/mL | first compound 1.5 µg/mL | first compound 3 µg/mL
[1], partner 1 µg/mL | 0.614 | 0.541 | 0.115
[1], partner 2 µg/mL | 0.652 | 0.526 | 0.102
[1], partner 4 µg/mL | 0.709 | 0.49 | –
[2], partner 1 µg/mL | 0.837 | 0.583 | 0.199
[2], partner 2 µg/mL | 0.899 | 0.652 | 0.172
[2], partner 4 µg/mL | 0.909 | 0.647 | 0.179

[2], partner 8 µg/mL, one replicate
Details | fitness
first compound 0.75 µg/mL | 0.889
first compound 1.5 µg/mL | 0.694
first compound 3 µg/mL | 0.35

Details | Bliss interaction score
[4] | 0.0483
[5] | -0.0341
[6] | 0.0702
[7] | -0.0682

O=C(N[C@H](CO)[C@H](O)c1ccc([N+](=O)[O-])cc1)C(Cl)Cl [Chloramphenicol] + CCCCCCCCCC(=O)N[C@@H]1[C@H]([C@@H]([C@H](O[C@H]1OC2=C3C=C4C=C2OC5=C(C=C(C=C5)[C@H]([C@H]6C(=O)N[C@@H](C7=C(C(=CC(=C7)O)OC8[C@H]([C@H]([C@@H]([C@H](O8)CO)O)O)O)C9=C(C=CC(=C9)[C@H](C(=O)N6)NC(=O)[C@@H]4NC(=O)[C@@H]1C2=CC(=CC(=C2)OC2=C(C=CC(=C2)[C@H](C(=O)N[C@H](CC2=CC(=C(O3)C=C2)Cl)C(=O)N1)N)O)O)O)C(=O)O)O[C@H]1[C@@H]([C@H]([C@@H]([C@H](O1)CO)O)O)NC(=O)C)Cl)CO)O)O [Teicoplanin]
fitness, main component drawn
Details | first compound 0.75 µg/mL | first compound 1.5 µg/mL | first compound 3 µg/mL
[1], partner 0.1562 µg/mL | 0.813 | 0.638 | 0.129
[1], partner 0.3125 µg/mL | 0.804 | – | 0.141
[1], partner 0.625 µg/mL | 0.915 | 0.739 | 0.149
[2], partner 0.1562 µg/mL | 0.865 | 0.666 | –
[2], partner 0.3125 µg/mL | 0.876 | 0.679 | 0.112
[2], partner 0.625 µg/mL | 0.842 | 0.725 | 0.13

fitness, [2], one replicate, main component drawn
Details | first compound 0.75 µg/mL | first compound 1.5 µg/mL | first compound 3 µg/mL
partner 0.62 µg/mL | 0.876 | 0.634 | 0.256
partner 1.24 µg/mL | 0.872 | 0.578 | 0.191
partner 2.48 µg/mL | 0.584 | 0.512 | –

main component drawn
Details | Bliss interaction score
[4] | -0.0728
[5] | 0.143
[6] | 0.151
[7] | -0.0708

O=C(N[C@H](CO)[C@H](O)c1ccc([N+](=O)[O-])cc1)C(Cl)Cl [Chloramphenicol] + CCN(CC)CCOC(=O)c1ccc(N)cc1 [Procaine]
fitness
Details | partner 85.5 µg/mL | partner 171 µg/mL | partner 342 µg/mL
[1], first compound 0.75 µg/mL | 0.675 | – | 0.753
[1], first compound 1.5 µg/mL | 0.516 | 0.57 | 0.538
[1], first compound 3 µg/mL | 0.0915 | 0.0967 | 0.0943
[2], first compound 0.75 µg/mL | 0.783 | 0.787 | 0.793
[2], first compound 1.5 µg/mL | 0.531 | 0.559 | 0.577

Details | Bliss interaction score
[4] | -0.0897
[5] | -0.0791
[6] | 0.0594
[7] | -0.0498

O=C(N[C@H](CO)[C@H](O)c1ccc([N+](=O)[O-])cc1)C(Cl)Cl [Chloramphenicol] + CN(N=O)C(=O)N[C@@H](C=O)[C@@H](O)[C@H](O)[C@H](O)CO [Streptozotocin]
fitness
Details | first compound 0.75 µg/mL | first compound 1.5 µg/mL | first compound 3 µg/mL
[1], partner 0.15 µg/mL | 0.677 | 0.481 | 0.104
[1], partner 0.3 µg/mL | 0.603 | 0.46 | 0.1
[1], partner 0.6 µg/mL | 0.616 | 0.385 | 0.0772
[2], partner 0.15 µg/mL | 0.705 | 0.464 | –
[2], partner 0.3 µg/mL | 0.605 | 0.402 | 0.0999
[2], partner 0.6 µg/mL | 0.47 | 0.295 | 0.0766

Details | Bliss interaction score
[4] | 0.0462
[5] | -0.0514
[6] | 0.0386
[7] | -0.0846
